Test results as given in PMC6282036, “Dual-Specificity Phosphatase CDC25B Was Inhibited by Natural Product HB-21 Through Covalently Binding to the Active Site” (Frontiers in Chemistry, 2018).

Assays:
Cdc25B [1] = target: T1, Cdc25B (Homo sapiens, UniProt P30305); test: OMFP fluorometric phosphatase assay (CycLex Cdc25B kit), positive control; type: biochemical
T1 construct: recombinant human Cdc25B
T1 sequence (P30305 1-580): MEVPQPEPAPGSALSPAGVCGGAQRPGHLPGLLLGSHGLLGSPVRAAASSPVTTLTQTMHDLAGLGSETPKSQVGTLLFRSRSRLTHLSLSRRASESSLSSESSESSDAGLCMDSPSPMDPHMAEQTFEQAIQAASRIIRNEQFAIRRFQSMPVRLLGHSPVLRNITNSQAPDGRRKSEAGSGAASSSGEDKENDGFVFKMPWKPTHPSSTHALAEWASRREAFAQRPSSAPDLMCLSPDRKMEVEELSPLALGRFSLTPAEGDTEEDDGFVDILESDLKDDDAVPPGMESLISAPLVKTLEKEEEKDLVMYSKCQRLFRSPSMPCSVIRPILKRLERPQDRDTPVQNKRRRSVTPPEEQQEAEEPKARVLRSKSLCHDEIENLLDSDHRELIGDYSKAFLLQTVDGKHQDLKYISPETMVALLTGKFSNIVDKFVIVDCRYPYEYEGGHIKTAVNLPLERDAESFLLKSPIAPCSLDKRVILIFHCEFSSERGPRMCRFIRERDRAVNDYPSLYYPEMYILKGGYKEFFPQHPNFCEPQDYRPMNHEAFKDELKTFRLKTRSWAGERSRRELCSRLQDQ

Cdc25B [2] = target: T2, Cdc25B (Homo sapiens, UniProt P30305); test: intact protein ESI-Q-TOF MS of covalent adducts; IC50 from OMFP fluorometric assay with recombinant Cdc25B; type: biochemical
T2 construct: Cdc25B catalytic domain (372–551)
T2 sequence (P30305 386-565): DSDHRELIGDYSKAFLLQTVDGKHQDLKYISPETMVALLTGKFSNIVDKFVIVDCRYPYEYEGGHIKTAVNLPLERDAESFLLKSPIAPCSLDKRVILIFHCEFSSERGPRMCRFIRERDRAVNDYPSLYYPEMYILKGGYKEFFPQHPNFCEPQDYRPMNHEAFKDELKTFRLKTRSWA

Row | IC50 (Cdc25B [1]) [µM] | IC50 (Cdc25B [2]) [µM] | Compound
1 | 5.37 ± 0.45 |  | CNC1=CC(=O)c2ccncc2C1=O [Caulibugulone A]
2 |  | 24.8 ± 1.63 | C=C1C(=O)O[C@@H]2C[C@H](C)C(CCC(C)=O)=C[C@H](O)[C@H]12 [HB-21]
